Laboratory results from the OPERA property sets (Mansouri et al. 2018).

Settings: not given

**Q.** For `CC(=O)c1ccc2ccccc2c1O`, which melting point is on record?
**A.** 101 °C

**Q.** With `Clc1cccc(-c2c(Cl)cc(Cl)c(Cl)c2Cl)c1Cl` as the compound, how does the log10 Henry constant (atm·m³/mol) read?
**A.** -4.41

**Q.** For `CCCCc1cc2c(=O)c(C(=O)OC)c[nH]c2cc1OCc1ccccc1`, which melting point is on record?
**A.** 288 °C

**Q.** Which boiling point does the source give for `NCCCCCO` here?
**A.** 222 °C

**Q.** And the melting point?
**A.** 38.5 °C

**Q.** For `CC(Oc1ccc(Oc2cnc3cc(Cl)ccc3n2)cc1)C(=O)OCC1CCCO1` (stereo not given), which melting point is on record?
**A.** 64 °C

**Q.** For `BrCc1ccc2ccccc2c1`, which melting point is on record?
**A.** 56 °C

**Q.** Which boiling point does the source give for `CCCCCCCCCCOC(=O)Cl` here?
**A.** 220 °C

**Q.** What about the log10 vapour pressure (mmHg) of the same compound?
**A.** -1.59

**Q.** For `CCN(CC)CC(=O)Nc1c(C)cc(C)cc1C`, which melting point is on record?
**A.** 44 °C

**Q.** With `CN(C)CCn1cnc2c1c(=O)n(C)c(=O)n2C` as the compound, how does the melting point read?
**A.** 95 °C

**Q.** Which boiling point does the source give for `CC[C@H](O)C(C)C` here?
**A.** 126 °C

**Q.** Which ready biodegradability does the source give for `CC(=O)NC1C(O)OC(CO)C(O)C1O` (stereo not given) here?
**A.** readily biodegradable

**Q.** Which melting point does the source give for `CC1=NNC(=O)C1` here?
**A.** 221 °C

**Q.** Which results are given for `CCCCC#N`?
**A.** boiling point: 141 °C; log10 Koa: 3.6; log10 vapour pressure (mmHg): 0.863; melting point: -96.2 °C

**Q.** With `CCN1CCN(c2cc3c(cc2F)c(=O)c(C(=O)O)cn3C2CC2)CC1` as the compound, how does the melting point read?
**A.** 220 °C

**Q.** Which boiling point does the source give for `C[Si](C)(C)[Si](C)(C)C` here?
**A.** 114 °C

**Q.** And the melting point?
**A.** 13.5 °C

**Q.** Which melting point does the source give for `Cc1cccc(C)c1NC1=NCCCS1` here?
**A.** 140 °C

**Q.** Which melting point does the source give for `C[C@]12C[C@@H](O)[C@H]3[C@@H](CC[C@]4(O)C[C@@H](O)C[C@@H](O)[C@]34CO)[C@@]1(O)CC[C@@H]2C1=CC(=O)OC1` here?
**A.** 236 °C

**Q.** Which ready biodegradability does the source give for `CC(C)=NNC(N)=S` here?
**A.** not readily biodegradable

**Q.** With `CCCCCCCCCCCCCC(CCCCCCCCCC)CCCCCCCCCC` as the compound, how does the melting point read?
**A.** 10.8 °C

**Q.** Which melting point does the source give for `CC(=O)Oc1ccc(Br)cc1C(=O)O` here?
**A.** 60 °C

**Q.** What does the source list for `CCCCOCCOP(=O)(OCCOCCCC)OCCOCCCC`?
**A.** melting point: -70 °C; ready biodegradability: not readily biodegradable

**Q.** For `c1cc(OCC2CO2)cc(OCC2CO2)c1` (stereo not given), which melting point is on record?
**A.** 42.5 °C

**Q.** Which boiling point does the source give for `CC(CC=O)CCCC(C)(C)O` (stereo not given) here?
**A.** 241 °C

**Q.** Which results are given for `Nc1cc([N+](=O)[O-])cc([N+](=O)[O-])c1`?
**A.** log10 Koc (L/kg): 2.55; melting point: 163 °C

**Q.** Which boiling point does the source give for `CCCCC(CC)CCC(=O)CC(C)C` (stereo not given) here?
**A.** 252 °C

**Q.** Which results are given for `Nc1ccc(-c2ccc(N)c(Cl)c2)cc1Cl`?
**A.** boiling point: 368 °C; log10 Koc (L/kg): 4.35; melting point: 132 °C; ready biodegradability: not readily biodegradable

**Q.** With `Cc1cccc2ccc3ccccc3c12` as the compound, how does the melting point read?
**A.** 53.5 °C

**Q.** With `O=C(Nc1ccccc1)NC1CCCCCC1` as the compound, how does the log10 Koc (L/kg) read?
**A.** 2.37

**Q.** Which results are given for `FC(F)COC(F)F`?
**A.** boiling point: 55.3 °C; log10 vapour pressure (mmHg): 2.36

**Q.** For `C#CC1(O)CCCC1`, which boiling point is on record?
**A.** 158 °C

**Q.** What about the melting point of the same compound?
**A.** 27 °C

**Q.** For `CCN(CC)CCCC(C)N` (stereo not given), which boiling point is on record?
**A.** 201 °C

**Q.** With `O=C1COc2ccccc21` as the compound, how does the melting point read?
**A.** 102 °C

**Q.** With `CC1OC(=O)C(C)OC1=O` (stereo not given) as the compound, how does the melting point read?
**A.** 118 °C

**Q.** With `Nc1ccc(C(=O)O)cn1` as the compound, how does the melting point read?
**A.** 312 °C

**Q.** Which boiling point does the source give for `CCO[SiH](OCC)OCC` here?
**A.** 134 °C

**Q.** For `CCc1nc(N)nc(N)c1-c1ccc(Cl)cc1`, which melting point is on record?
**A.** 234 °C

**Q.** What does the source list for `C=CCCCCCCCCCCCCCCCCC`?
**A.** boiling point: 329 °C; log10 vapour pressure (mmHg): -4.42; melting point: 23 °C

**Q.** Which boiling point does the source give for `CC(C)N=C=NC(C)C` here?
**A.** 147 °C

**Q.** Which melting point does the source give for `CC(=O)O[C@]1(C(C)=O)CC[C@H]2[C@@H]3C[C@H](C(F)(F)F)C4=CC(=O)CC[C@]4(C)[C@H]3CC[C@@]21C` here?
**A.** 206 °C

**Q.** With `O=C=Nc1cccc(N=C=O)c1` as the compound, how does the melting point read?
**A.** 50 °C

**Q.** Which results are given for `CS(=O)(=O)c1cc(C(F)(F)F)ccc1C(=O)c1cnoc1C1CC1`?
**A.** log10 Henry constant (atm·m³/mol): -9.73; log10 vapour pressure (mmHg): -8.12; melting point: 140 °C

**Q.** Which melting point does the source give for `CCC(C)=NNc1ccc([N+](=O)[O-])cc1[N+](=O)[O-]` here?
**A.** 117 °C

**Q.** What does the source list for `C1CCC(OC2CCCCC2)CC1`?
**A.** boiling point: 242 °C; melting point: -36 °C

**Q.** With `O=Cc1ccc([N+](=O)[O-])cc1[N+](=O)[O-]` as the compound, how does the melting point read?
**A.** 72 °C

**Q.** Which melting point does the source give for `O=C(O)c1cccc2cccnc12` here?
**A.** 187 °C

**Q.** What does the source list for `Clc1cc(Cl)c(-c2cc(Cl)c(Cl)c(Cl)c2Cl)cc1Cl`?
**A.** log10 Henry constant (atm·m³/mol): -5; log10 Koa: 9.88; log10 vapour pressure (mmHg): -6.01; logP: 7.72

**Q.** Which ready biodegradability does the source give for `N=C(N)N(c1ccccc1)c1ccccc1` here?
**A.** not readily biodegradable

**Q.** With `CC1=CC(=O)c2ccccc2C1=O` as the compound, how does the melting point read?
**A.** 107 °C

**Q.** Which melting point does the source give for `O=C(O)c1c(Cl)c(Cl)c(Cl)c(Cl)c1C(O)=Nc1cccc(Cl)c1Cl` here?
**A.** 198 °C

**Q.** Which ready biodegradability does the source give for `C=CC(=O)OCCn1c(=O)n(CCOC(=O)C=C)c(=O)n(CCOC(=O)C=C)c1=O` here?
**A.** not readily biodegradable

**Q.** For `CCC(C)CC(C)N` (stereo not given), which boiling point is on record?
**A.** 132 °C

**Q.** With `C[C@H](CN1CCOCC1)C(C(=O)N1CCCC1)(c1ccccc1)c1ccccc1` as the compound, how does the melting point read?
**A.** 182 °C

**Q.** With `CC(C)C(Cl)Cl` as the compound, how does the boiling point read?
**A.** 106 °C

**Q.** What about the log10 vapour pressure (mmHg) of the same compound?
**A.** 1.6

**Q.** With `CC1=CCC2CC1C2(C)C` (racemic) as the compound, how does the boiling point read?
**A.** 156 °C

**Q.** What about the melting point of the same compound?
**A.** -60.5 °C

**Q.** With `CC1CCC(C)(C(=O)O)C1(C)C` (stereo not given) as the compound, how does the boiling point read?
**A.** 254 °C

**Q.** What about the melting point of the same compound?
**A.** 106 °C

**Q.** With `CC(=O)F` as the compound, how does the boiling point read?
**A.** 20.8 °C

**Q.** And the melting point?
**A.** -84 °C

**Q.** For `Clc1cc(Cl)c2c(c1)oc1cc(Cl)cc(Cl)c12`, which log10 vapour pressure (mmHg) is on record?
**A.** -7.73

**Q.** What about the melting point of the same compound?
**A.** 207 °C

Same assay, conditions: fish

**Q.** With `ClCCOC(c1ccccc1)c1ccccc1` as the compound, how does the log10 BCF read?
**A.** 2.51

**Q.** What about the log10 biotransformation half-life (days) of the same compound?
**A.** -0.07

**Q.** For `O=[N+]([O-])c1ccc(O)cc1`, which log10 BCF is on record?
**A.** 0.71

**Q.** Which log10 biotransformation half-life (days) does the source give for `c1cc2c3c(ccc4c3c1CCC4)CCC2` here?
**A.** 0.42

**Q.** With `CNc1ccc(C(=O)O)cc1` as the compound, how does the log10 BCF read?
**A.** 0.38

**Q.** With `CCOP(=O)(OCC)Oc1cc(C)nc(C(C)C)n1` as the compound, how does the log10 BCF read?
**A.** -0.35

**Q.** For `CC(C)(c1ccc(OC(F)(F)C(F)F)cc1)c1ccc(OC(F)(F)C(F)F)cc1`, which log10 BCF is on record?
**A.** 4.35

**Q.** And the log10 biotransformation half-life (days)?
**A.** 2.79

**Q.** For `CCCCOCCOP(=O)(OCCOCCCC)OCCOCCCC`, which log10 BCF is on record?
**A.** 0.76

**Q.** With `Nc1ccc(-c2ccc(N)c(Cl)c2)cc1Cl` as the compound, how does the log10 BCF read?
**A.** 2.16

**Q.** And the log10 biotransformation half-life (days)?
**A.** -0.13

**Q.** For `CCCCCC(C)CCCC(C)C` (stereo not given), which log10 biotransformation half-life (days) is on record?
**A.** 1.02
